Source: patent US20210024507A1, “Compounds” (Step Pharma S.A.S., priority 2018, published 2021)

System: human CTPS1
Assay: RapidFire/MS-based enzyme selectivity assay, human CTPS1
Format: biochemical
Conditions: calculated from the CTPS1 and CTPS2 IC50 values
Protocol: The enzyme inhibitory activities against each target isoform of interest may be determined for the compounds of the invention using an optimised RapidFire high-throughput mass spectrometry (RF/MS) assay format. RF/MS assays for both human CTPS1 and CTPS2 may be performed in assay buffer consisting of 50mM HEPES (Merck), 20mM MgCl2, 5mM KCI, 1mM DTT, 0.01% Tween-20, pH to 8.0 accordingly. Human full-length active C-terminal FLAG-His-tag CTPS1 (UniProtKB - P17812, CTPS[1-591]-[…]) may be obtained from Proteros biostructures GmbH. Human full length active C-terminal FLAG-His-Avi tagged CTPS2 (UniProtKB-Q9NRF8, CTPS2 [1-586]- […]) may be obtained from Harker Bio.
Human CTPS (1 or 2) protein may be prepared in lx assay buffer to the final working protein concentration required for the reaction. A 2uL volume per well of 2× CTPS (1 or 2) protein may be mixed with 40nL of compound using acoustic (ECHO) delivery and incubated for 10 minutes at 25° C. Each isoform enzymatic reaction may be subsequently initiated by addition of 2uL per well of a 2× substrate mix in assay buffer. For hCTPS1: ATP (0.3mM), UTP (0.2mM), GTP (0.07mM) and L-glutamine (0.1mM). For hCTPS2: ATP (0.1mM), UTP (0.04mM), GTP (0.03mM) and L-glutamine (0.1mM). Each mixture may be incubated for an appropriate amount of time per isoform within the determined linear phase of the reaction at 25° C. A 60uL volume of stop solution (1% formic acid with 0.5uM ^13C9-^15N3-CTP in H2O) may be added and the plate immediately heat-sealed and centrifuged for 10 minutes at 4,000rpm. Following centrifugation, plates may be loaded onto the Agilent RapidFire microfluidic solid phase extraction system coupled to an AP14000 triple quadrupole mass spectrometer (RF/MS) for analysis.
In all cases, the enzyme converts UTP to CTP. Highly specific and sensitive multiple reaction monitoring (MRM) MS methods may be optimised for the detection of the enzymatic reaction product, CTP, and the stable isotope labelled product standard ^13C9-^15N3-CTP. Readout for data analysis may be calculated as the ratio between the peak area of the product CTP and the internal standard ^13C9-^15N3-CTP. For data reporting, the following equation may be used:
[formula] (R=ratio/readout, P=product signal area, IS=internal standard signal area)
For each screening plate, the means of the negative (DMSO) and positive control values were used for the calculation of the respective assay window (S/B) and Z′ values. The median of the respective control values was used for calculation of percent inhibition according to the following equation:
[formula] (I=Inhibition, Rneg=median of negative control readout values, Rpos=median of positive control readout values, Rsample=sample readout value)
Percentage inhibition was then plotted against compound concentration, and the 50% inhibitory concentration (IC50) was determined from the resultant concentration-response curve.
Fold selectivity between CTPS1 and CTPS2 was subsequently calculated according to the following equation: […]

SMILES | Selectivity (fold selectivity between CTPS1 and CTPS2)
CC(C)Oc1cncc(-c2ccc(NC(=O)C(C)(C)c3ccnc(NS(=O)(=O)C4CC4)n3)c(F)c2)n1 [P39, 2-(2-(cyclopropanesulfonamido)pyrimidin-4-yl)-N-(2-fluoro-4-(6-isopropoxypyrazin-2-yl)phenyl)-2-methylpropanamide] | + (2-30 fold (+))
CCOc1cncc(-c2ccc(NC(=O)Cc3ccnc(NS(=O)(=O)C4CC4)n3)cc2)n1 [P18, 2-(2-(cyclopropanesulfonamido)pyrimidin-4-yl)-N-(4-(6-ethoxypyrazin-2-yl)phenyl)acetamide] | ++ (>30-60 fold (++))
O=C(Cc1ccnc(NS(=O)(=O)C2CC2)n1)Nc1ccc(-c2cccnc2)cc1 [P16, 2-(2-(cyclopropanesulfonamido)pyrimidin-4-yl)-N-(4-(pyridin-3-yl)phenyl)acetamide] | ++ (>30-60 fold (++))
CCOc1cncc(-c2ccc(NC(=O)C(C)(C)c3ccnc(NS(=O)(=O)CC)n3)cc2)n1 [P74, N-(4-(6-ethoxypyrazin-2-yl)phenyl)-2-(2-(ethylsulfonamido)pyrimidin-4-yl)-2-methylpropanamide] | ++ (>30-60 fold (++))
CCOc1cncc(-c2ccc(NC(=O)C(OC)c3ccnc(NS(=O)(=O)C4CC4)n3)cc2)n1 (stereo not shown) [P164, 2-(2-(cyclopropanesulfonamido)pyrimidin-4-yl)-N-(4-(6-ethoxypyrazin-2-yl)phenyl)-2-methoxyacetamide] | + (2-30 fold (+))
CCOc1cncc(-c2ccc(NC(=O)C3(c4ccnc(NS(=O)(=O)C5CC5)n4)CC3)cc2)n1 [P83, 1-(2-(cyclopropanesulfonamido)pyrimidin-4-yl)-N-(4-(6-ethoxypyrazin-2-yl)phenyl)cyclopropanecarboxamide] | +++ (>60 fold (+++))
CC(C)(C(=O)Nc1ccc(-c2cccnc2)cc1)c1ccnc(NS(=O)(=O)C2CC2)n1 [P59, 2-(2-(cyclopropanesulfonamido)pyrimidin-4-yl)-2-methyl-N-(4-(pyridin-3-yl)phenyl)propanamide] | + (2-30 fold (+))
CCOc1cncc(-c2ccc(NC(=O)C3(c4ccnc(NS(=O)(=O)C5CC5)n4)CCCC3)cc2)n1 [P2, 1-(2-(Cyclopropanesulfonamido)pyrimidin-4-yl)-N-(4-(6-ethoxypyrazin-2-yl)phenyl)cyclopentanecarboxamide] | +++ (>60 fold (+++))
CCOc1cncc(-c2ccc(NC(=O)C3(c4ccnc(NS(=O)(=O)C5CC5)n4)CCOCC3)c(F)c2)n1 [P143, 4-(2-(cyclopropanesulfonamido)pyrimidin-4-yl)-N-(4-(6-ethoxypyrazin-2-yl)-2-fluorophenyl)tetrahydro-2H-pyran-4-carboxamide] | +++ (>60 fold (+++))
CC(C)Oc1cncc(-c2ccc(NC(=O)Cc3ccnc(NS(=O)(=O)C4CC4)n3)c(F)c2)n1 [P12, 2-(2-(cyclopropanesulfonamido)pyrimidin-4-yl)-N-(2-fluoro-4-(6-isopropoxypyrazin-2-yl)phenyl)acetamide] | ++ (>30-60 fold (++))

Next, values leading:

Selectivity (fold selectivity between CTPS1 and CTPS2) | SMILES
+++ (>60 fold (+++)) | CCOc1cncc(-c2ccc(NC(=O)C3(c4ccnc(NS(=O)(=O)C5CC5)n4)CCOCC3)nc2)n1 [P115, 4-(2-(cyclopropanesulfonamido)pyrimidin-4-yl)-N-(5-(6-ethoxypyrazin-2-yl)pyridin-2-yl)tetrahydro-2H-pyran-4-carboxamide]
+++ (>60 fold (+++)) | CC(C)Oc1cncc(-c2ccc(NC(=O)C(C)(C)c3ccnc(NS(=O)(=O)C4CC4)n3)nc2)n1 [P9, 2-(2-(cyclopropanesulfonamido)pyrimidin-4-yl)-N-(5-(6-isopropoxypyrazin-2-yl)pyridin-2-yl)-2-methylpropanamide]
++ (>30-60 fold (++)) | CCOc1cncc(-c2ccc(NC(=O)C(C)(OC)c3cncc(NS(=O)(=O)C4CC4)n3)nc2)n1 (single isomer, unassigned) [P205b, 2-(6-(cyclopropanesulfonamido)pyrazin-2-yl)-N-(5-(6-ethoxypyrazin-2-yl)pyridin-2-yl)-2-methoxypropanamide]
+ (2-30 fold (+)) | CCOc1cncc(-c2ccc(NC(=O)C(C)(C)c3ccnc(NS(=O)(=O)C4CC4)n3)c(F)c2)n1 [P38, 2-(2-(cyclopropanesulfonamido)pyrimidin-4-yl)-N-(4-(6-ethoxypyrazin-2-yl)-2-fluorophenyl)-2-methylpropanamide]
+++ (>60 fold (+++)) | CCOc1cncc(-c2ccc(NC(=O)C3(c4cncc(NS(=O)(=O)C5CC5)n4)CCOCC3)nc2)n1 [P197, 4-(6-(cyclopropanesulfonamido)pyrazin-2-yl)-N-(5-(6-ethoxypyrazin-2-yl)pyridin-2-yl)tetrahydro-2H-pyran-4-carboxamide]
+++ (>60 fold (+++)) | CCOc1cncc(-c2ccc(NC(=O)C(CCOC)c3ccnc(NS(=O)(=O)C4CC4)n3)nc2)n1 (stereo not shown) [P145, 2-(2-(cyclopropanesulfonamido)pyrimidin-4-yl)-N-(5-(6-ethoxypyrazin-2-yl)pyridin-2-yl)-4-methoxybutanamide]
+ (2-30 fold (+)) | CC(C)(NC(=O)c1ccc(-c2cncc(C(F)(F)F)n2)cc1)c1cncc(NS(=O)(=O)C2CC2)n1 [P222, N-(2-(6-(cyclopropanesulfonamido)pyrazin-2-yl)propan-2-yl)-4-(6-(trifluoromethyl)pyrazin-2-yl)benzamide]
+ (2-30 fold (+)) | CCOc1cncc(-c2ccc(NC(=O)C(C)(C)c3ccnc(NS(=O)(=O)C4CC4)n3)c(C#N)c2)n1 [P34, N-(2-cyano-4-(6-ethoxypyrazin-2-yl)phenyl)-2-(2-(cyclopropanesulfonamido)pyrimidin-4-yl)-2-methylpropanamide]
++ (>30-60 fold (++)) | CCOc1cncc(-c2ccc(NC(=O)C(C)(C)c3nc(NS(=O)(=O)C4CC4)ncc3F)cc2)n1 [P68, 2-(2-(cyclopropanesulfonamido)-5-fluoropyrimidin-4-yl)-N-(4-(6-ethoxypyrazin-2-yl)phenyl)-2-methylpropanamide]
+++ (>60 fold (+++)) | CCOc1cncc(-c2ccc(NC(=O)C(F)(CC)c3ccnc(NS(C)(=O)=O)n3)nc2)n1 (stereo not shown) [P151, N-(5-(6-ethoxypyrazin-2-yl)pyridin-2-yl)-2-fluoro-2-(2-(methylsulfonamido)pyrimidin-4-yl)butanamide]
++ (>30-60 fold (++)) | CC(C)(C(=O)Nc1ccc(-c2cncc(C3CC3)n2)cn1)c1ccnc(NS(=O)(=O)C2CC2)n1 [P125, 2-(2-(cyclopropanesulfonamido)pyrimidin-4-yl)-N-(5-(6-cyclopropylpyrazin-2-yl)pyridin-2-yl)-2-methylpropanamide]
+++ (>60 fold (+++)) | CCOc1cncc(-c2ccc(NC(=O)C(C)(OC)c3cncc(NS(=O)(=O)C4CC4)n3)nc2)n1 (single isomer, unassigned) [P205a, 2-(6-(cyclopropanesulfonamido)pyrazin-2-yl)-N-(5-(6-ethoxypyrazin-2-yl)pyridin-2-yl)-2-methoxypropanamide]
+++ (>60 fold (+++)) | CCOc1cncc(-c2ccc(NC(=O)C(C)(C)c3cncc(NS(=O)(=O)C4CC4)n3)cc2)n1 [P196, 2-(6-(cyclopropanesulfonamido)pyrazin-2-yl)-N-(4-(6-ethoxypyrazin-2-yl)phenyl)-2-methylpropanamide]
+++ (>60 fold (+++)) | CCOc1cncc(-c2ccc(NC(=O)C(C)(C)c3cncc(NS(=O)(=O)C4CC4)n3)nc2)n1 [P195, 2-(6-(cyclopropanesulfonamido)pyrazin-2-yl)-N-(5-(6-ethoxypyrazin-2-yl)pyridin-2-yl)-2-methylpropanamide]
+ (2-30 fold (+)) | CC(C)Oc1cncc(-c2ccc(C(=O)NC(C)(C)c3cncc(NS(=O)(=O)C4CC4)n3)c(F)c2)n1 [P221, N-(2-(6-(cyclopropanesulfonamido)pyrazin-2-yl)propan-2-yl)-2-fluoro-4-(6-isopropoxypyrazin-2-yl)benzamide]
